The record followed here is patent US8338465B2, “Cyclic carboxylic acid rhodanine derivatives for the treatment and prevention of tuberculosis” (priority 2006, dated 2012).

The experiment concerns the target T1, dihydrolipoamide acyltransferase (DlaT) (Mycobacterium tuberculosis, UniProt P9WIS7).
T1 sequence (P9WIS7 1-553): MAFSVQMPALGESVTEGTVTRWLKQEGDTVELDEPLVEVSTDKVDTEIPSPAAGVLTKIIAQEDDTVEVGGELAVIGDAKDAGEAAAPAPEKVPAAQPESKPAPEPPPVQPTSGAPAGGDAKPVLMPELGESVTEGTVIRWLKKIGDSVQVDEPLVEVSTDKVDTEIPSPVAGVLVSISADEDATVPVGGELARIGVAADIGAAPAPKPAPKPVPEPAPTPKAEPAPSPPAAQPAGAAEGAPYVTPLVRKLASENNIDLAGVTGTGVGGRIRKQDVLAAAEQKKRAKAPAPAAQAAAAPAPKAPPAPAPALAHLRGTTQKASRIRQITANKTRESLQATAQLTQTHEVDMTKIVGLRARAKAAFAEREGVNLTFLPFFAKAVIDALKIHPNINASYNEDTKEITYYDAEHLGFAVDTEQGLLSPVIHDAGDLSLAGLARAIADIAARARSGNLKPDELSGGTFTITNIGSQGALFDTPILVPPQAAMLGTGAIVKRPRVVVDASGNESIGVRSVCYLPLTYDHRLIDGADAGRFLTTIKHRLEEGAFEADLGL
Description: DlaT inhibition (Dlat IC50); DTNB peroxidase assay with Lpd, DlaT and AhpD. It is filed as biochemical. The conditions noted are these: Table 1, Compounds A1 to A294; read-out: Dlat IC50 category.
Turning to `COc1ccc(C(=O)O)cc1N1C(=O)C(=Cc2ccc(-c3ccc(Cl)cc3)o2)SC1=S` [Compound A87], the concentration for half-maximal inhibition (IC50) was under 10 µM.
Then `O=C(O)c1cc(N2C(=O)C(=Cc3ccc(-c4ccccc4Cl)o3)SC2=S)cc([N+](=O)[O-])c1` [Compound A88], with under 10 µM; and `O=C(O)c1cc(N2C(=O)C(=Cc3ccc(-c4cccc(C(F)(F)F)c4)o3)SC2=S)cc([N+](=O)[O-])c1` [Compound A89], with 11 to 40 µM.
Consider `O=C(O)c1cc(N2C(=O)C(=Cc3ccc(-c4ccc(Cl)cc4)o3)SC2=S)cc([N+](=O)[O-])c1` [Compound A90], for which the IC50 was under 10 µM.
For the compound `COc1ccc(C(=O)O)cc1N1C(=O)C(=Cc2ccc(-c3ccc(CC(C)C)cc3)o2)SC1=S` [Compound A91], the concentration for half-maximal inhibition (IC50) was under 10 µM.
In the case of `CC(C)Cc1ccc(-c2ccc(C=C3SC(=S)N(c4cc(C(=O)O)ccc4Cl)C3=O)o2)cc1` [Compound A92], the half-maximal inhibitory concentration (IC50) was under 10 µM.
For `COc1ccc(C(=O)O)cc1N1C(=O)C(=Cc2ccc(-c3cccc(C(C)C)c3)o2)SC1=S` [Compound A93], the IC50 is under 10 µM.
As to `O=C(O)c1cccc(N2C(=O)C(=Cc3ccc(-c4ccc(C5CCCC5)cc4)o3)SC2=S)c1` [Compound A94], the IC50 was under 10 µM.
For `CC(C)(c1ccccc1)c1ccc(-c2ccc(C=C3SC(=S)N(c4cccc(C(=O)O)c4)C3=O)o2)cc1` [Compound A95], the half-inhibitory concentration (IC50) was under 10 µM.
`CC(C)(c1ccccc1)c1ccc(-c2ccc(C=C3SC(=S)N(c4cc(C(=O)O)ccc4Cl)C3=O)o2)cc1` [Compound A96]: the IC50 is under 10 µM.
`COc1ccc(C(=O)O)cc1N1C(=O)C(=Cc2ccc(-c3ccc(C(C)(C)c4ccccc4)cc3)o2)SC1=S` [Compound A97]: the IC50 was 11 to 40 µM.
As for `Cc1c(C(=O)O)cccc1N1C(=O)C(=Cc2ccc(-c3ccc(C(C)(C)c4ccccc4)cc3)o2)SC1=S` [Compound A98], the IC50 was under 10 µM.
`O=C(O)c1ccc(F)c(N2C(=O)C(=Cc3ccc(-c4ccccc4Cl)o3)SC2=S)c1` [Compound A99]: the IC50 is under 10 µM.
For the compound `CC(C)(C)c1ccc(-c2ccc(C=C3SC(=S)N(c4cc(C(=O)O)ccc4F)C3=O)o2)cc1` [Compound A100], the concentration for half-maximal inhibition (IC50) was under 10 µM.
For `O=C(O)c1ccc(F)c(N2C(=O)C(=Cc3ccc(-c4ccc(C5CCCCC5)cc4)o3)SC2=S)c1` [Compound A101], the IC50 was under 10 µM.
In the case of `Cc1ccc(C(=O)O)cc1N1C(=O)C(=Cc2ccc(-c3ccc(C(C)(C)c4ccccc4)cc3)o2)SC1=S` [Compound A102], the IC50 was under 10 µM.
`O=C(O)c1ccc(F)c(N2C(=O)C(=Cc3ccc(-c4cccc(C(F)(F)F)c4)o3)SC2=S)c1` [Compound A103]: the IC50 was under 10 µM.
Turning to `O=C(O)c1ccc(F)c(N2C(=O)C(=Cc3ccc(-c4ccc(Cl)cc4)o3)SC2=S)c1` [Compound A104], the IC50 is under 10 µM.
For `O=C(O)c1ccc(F)c(N2C(=O)C(=Cc3ccc(-c4ccc(Cl)c(Cl)c4)o3)SC2=S)c1` [Compound A105], the IC50 was under 10 µM.
For the compound `O=C(O)c1ccc(F)c(N2C(=O)C(=Cc3ccc(-c4c(Cl)cccc4Cl)o3)SC2=S)c1` [Compound A106], the IC50 was under 10 µM.
Next, `O=C(O)c1ccc(Cl)c(N2C(=O)C(=Cc3ccc(-c4ccc(Cl)c(Cl)c4)o3)SC2=S)c1` [Compound A107]: under 10 µM; `O=C(O)c1cc(N2C(=O)C(=Cc3ccc(-c4ccc(Cl)c(Cl)c4)o3)SC2=S)ccc1Cl` [Compound A108]: under 10 µM.
As to `O=C(O)c1cc(N2C(=O)C(=Cc3ccc(-c4c(Cl)cccc4Cl)o3)SC2=S)ccc1Cl` [Compound A109], the IC50 was under 10 µM.
As for `O=C(O)c1ccc(Cl)c(N2C(=O)C(=Cc3ccc(-c4c(Cl)cccc4Cl)o3)SC2=S)c1` [Compound A110], the IC50 is under 10 µM.
In the case of `Cc1c(C(=O)O)cccc1N1C(=O)C(=Cc2ccc(-c3ccc(Cl)c(Cl)c3)o2)SC1=S` [Compound A111], the IC50 is under 10 µM.
For the compound `Cc1c(C(=O)O)cccc1N1C(=O)C(=Cc2ccc(-c3c(Cl)cccc3Cl)o2)SC1=S` [Compound A112], the half-maximal inhibitory concentration (IC50) was under 10 µM.
For `Cc1ccc(C(=O)O)cc1N1C(=O)C(=Cc2ccc(-c3ccc(Cl)c(Cl)c3)o2)SC1=S` [Compound A113], the half-inhibitory concentration (IC50) was under 10 µM.
On to `Cc1ccc(C(=O)O)cc1N1C(=O)C(=Cc2ccc(-c3c(Cl)cccc3Cl)o2)SC1=S` [Compound A114], for which the half-inhibitory concentration (IC50) is under 10 µM.
Then `O=C(O)c1cccc(N2C(=O)C(=Cc3ccc(-c4ccc(C(=O)O)c(O)c4)o3)SC2=S)c1` [Compound A115], with 11 to 40 µM.
For the compound `CN(C)c1ccc(-c2ccc(C=C3SC(=S)N(c4cccc(C(=O)O)c4)C3=O)o2)cc1` [Compound A116], the 50% inhibitory concentration (IC50) lay within 11 to 40 µM.
`O=C(O)c1cccc(N2C(=O)C(=Cc3ccc(-c4cccc(Cl)c4Cl)o3)SC2=S)c1` [Compound A117]: the IC50 is under 10 µM.
On to `O=C(O)CCc1cccc(N2C(=O)C(=Cc3ccc(-c4ccccc4Cl)o3)SC2=S)c1` [Compound A118], for which the IC50 is under 10 µM.
For `O=C(O)CCc1cccc(N2C(=O)C(=Cc3ccc(-c4cccc(Cl)c4)o3)SC2=S)c1` [Compound A119], the IC50 was under 10 µM.
`O=C(O)CCc1cccc(N2C(=O)C(=Cc3ccc(-c4ccc(Cl)cc4)o3)SC2=S)c1` [Compound A120]: the 50% inhibitory concentration (IC50) is under 10 µM.
As for `O=C(O)c1cccc(N2C(=O)C(=Cc3ccc(-c4cc(Cl)cc(Cl)c4)o3)SC2=S)c1` [Compound A121], the IC50 was in the range of 11 to 40 µM.
Turning to `CN(C)Cc1ccc(-c2ccc(C=C3SC(=S)N(c4cccc(C(=O)O)c4)C3=O)o2)cc1` [Compound A122], the concentration for half-maximal inhibition (IC50) fell in the range of 11 to 40 µM.
`O=C(O)c1cccc(N2C(=O)C(=Cc3ccc(-c4ccc(Br)cc4)o3)SC2=S)c1` [Compound A123]: the 50% inhibitory concentration (IC50) lay within 11 to 40 µM.
On to `O=C(O)c1cccc(N2C(=O)C(=Cc3ccc(-c4ccc(O)cc4Cl)o3)SC2=S)c1` [Compound A124], for which the 50% inhibitory concentration (IC50) was under 10 µM.
Consider `CN(C)c1cccc(-c2ccc(C=C3SC(=S)N(c4cccc(C(=O)O)c4)C3=O)o2)c1` [Compound A125], for which the IC50 is under 10 µM.
As for `C#Cc1ccc(-c2ccc(C=C3SC(=S)N(c4cccc(C(=O)O)c4)C3=O)o2)cc1` [Compound A126], the IC50 fell in the range of 11 to 40 µM.
Take `O=C(O)c1cccc(N2C(=O)C(=Cc3ccc(-c4cccc([N+](=O)[O-])c4)o3)SC2=S)c1` [Compound A127]: the IC50 is under 10 µM.
In the case of `O=C(O)c1ccc(Cl)c(N2C(=O)C(=Cc3ccc(-c4cccc([N+](=O)[O-])c4)o3)SC2=S)c1` [Compound A128], the IC50 was under 10 µM.
For `O=C(O)c1cccc(N2C(=O)C(=Cc3ccc(-c4ccccc4[N+](=O)[O-])o3)SC2=S)c1` [Compound A129], the half-maximal inhibitory concentration (IC50) was over 41 µM.
Next, `O=C(O)c1cccc(N2C(=O)C(=Cc3ccc(-c4ccc([N+](=O)[O-])cc4)o3)SC2=S)c1` [Compound A130]: 11 to 40 µM; `O=C(O)c1cccc(N2C(=O)C(=Cc3ccc(-c4ccc(Cl)cc4[N+](=O)[O-])o3)SC2=S)c1` [Compound A131]: 11 to 40 µM.
For the compound `O=C(O)c1cccc(N2C(=O)C(=Cc3ccc(-c4ccccc4Br)o3)SC2=S)c1` [Compound A132], the IC50 is 11 to 40 µM.
As to `CC(C)(C)c1ccc(-c2ccc(C=C3SC(=S)N(c4cccc(C(=O)O)c4)C3=O)o2)c(O)c1` [Compound A133], the IC50 is under 10 µM.
In the case of `Cc1ccccc1-c1ccc(C=C2SC(=S)N(c3cccc(C(=O)O)c3)C2=O)o1` [Compound A134], the IC50 was in the range of 11 to 40 µM.
On to `COc1ccccc1-c1ccc(C=C2SC(=S)N(c3cccc(C(=O)O)c3)C2=O)o1` [Compound A135], for which the half-inhibitory concentration (IC50) was under 10 µM.
As to `O=C(O)c1ccc(Cl)c(N2C(=O)C(=Cc3ccc(-c4ccc(N5CCOCC5)cc4)o3)SC2=S)c1` [Compound A137], the IC50 was under 10 µM.
With `O=C(O)c1cccc(N2C(=O)C(=Cc3ccc(-c4ccccc4F)o3)SC2=S)c1` [Compound A138], the IC50 lay in the range of 11 to 40 µM.
Then `COc1ccccc1-c1ccc(C=C2SC(=S)N(c3cc(C(=O)O)ccc3F)C2=O)o1` [Compound A139], with under 10 µM; and `COc1ccccc1-c1ccc(C=C2SC(=S)N(c3cc(C(=O)O)ccc3Cl)C2=O)o1` [Compound A140], with under 10 µM; and `COc1ccccc1-c1ccc(C=C2SC(=S)N(c3cc(C(=O)O)ccc3C)C2=O)o1` [Compound A141], with under 10 µM.
Next, `COc1ccccc1-c1ccc(C=C2SC(=S)N(c3cccc(C(=O)O)c3C)C2=O)o1` [Compound A142]: under 10 µM.
In the case of `N#Cc1c(F)cccc1-c1ccc(C=C2SC(=S)N(c3cccc(C(=O)O)c3)C2=O)o1` [Compound A143], the half-maximal inhibitory concentration (IC50) lay in the range of 11 to 40 µM.
Next, `Cc1ccccc1-c1ccc(C=C2SC(=S)N(c3cc(C(=O)O)ccc3F)C2=O)o1` [Compound A144]: under 10 µM; `Cc1ccccc1-c1ccc(C=C2SC(=S)N(c3cc(C(=O)O)ccc3C)C2=O)o1` [Compound A145]: under 10 µM.
For `COc1ccc(-c2ccc(C=C3SC(=S)N(c4cccc(C(=O)O)c4)C3=O)o2)cc1Cl` [Compound A146], the IC50 was under 10 µM.
Take `Cc1ccc(-c2ccc(C=C3SC(=S)N(c4cccc(C(=O)O)c4)C3=O)o2)cc1` [Compound A147]: the IC50 lay in the range of 11 to 40 µM.
Then `Cc1cc(F)ccc1-c1ccc(C=C2SC(=S)N(c3cccc(C(=O)O)c3)C2=O)o1` [Compound A148], with under 10 µM; and `Cc1cc(F)ccc1-c1ccc(C=C2SC(=S)N(c3cc(C(=O)O)ccc3F)C2=O)o1` [Compound A149], with under 10 µM.
